Data on 18 molecules can be found in US8637549B2, “Pyridons as PDK1 inhibitors” (Boehringer Ingelheim International GmbH, priority 2008, dated 2014).

In the assay the target is T1, His6-PDK1 (aa 52-556) (Homo sapiens, UniProt O15530).
T1 construct: 15 μL His6-PDK1 (aa 52-556) 3.33 ng/well) and PDKtide; host or cells: baculovirus-infected insect cells
T1 sequence (O15530 52-556): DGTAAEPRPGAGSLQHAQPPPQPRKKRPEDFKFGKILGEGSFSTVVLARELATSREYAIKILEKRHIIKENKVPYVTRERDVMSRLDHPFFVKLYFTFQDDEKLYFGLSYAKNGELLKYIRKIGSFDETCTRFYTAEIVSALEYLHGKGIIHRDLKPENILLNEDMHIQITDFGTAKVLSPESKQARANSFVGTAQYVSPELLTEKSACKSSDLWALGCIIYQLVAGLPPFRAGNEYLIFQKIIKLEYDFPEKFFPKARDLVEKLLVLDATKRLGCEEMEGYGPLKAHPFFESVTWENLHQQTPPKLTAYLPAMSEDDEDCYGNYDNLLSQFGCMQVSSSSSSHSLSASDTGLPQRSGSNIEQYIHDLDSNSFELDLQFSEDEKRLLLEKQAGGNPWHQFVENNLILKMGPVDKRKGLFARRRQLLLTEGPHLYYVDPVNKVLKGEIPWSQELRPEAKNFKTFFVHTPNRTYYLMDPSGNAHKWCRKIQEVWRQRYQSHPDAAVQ
The assay is described as follows: PDK1 kinase assay III (with Tween 20). The assay is classed as biochemical. The settings on record: 10 μM compound, residual enzyme activity relative to DMSO control, unmarked values, read-out: % CTL. On the procedure:
Another PDK1 assay was developed which by comparison with PDK1 assay 1 additionally contains Tween 20:
The following components are combined in a well of a 96-well round-based dish (Messrs. Greiner bio-one, No. 650101): • 15 μL of compound to be tested in varying concentrations (e.g. Starting at 10 μM, and diluted in steps of 1:5) in APT buffer (50 mM tris/C1 pH7.5; 0.05% β-mercaptoethanol; 10 mM Mg-acetate; 0.0166% Tween 20; 3.33% DMSO) • 15 μL His6-PDK1 (aa 52-556) 3.33 ng/well) and PDKtide (KTFCGTPEYLAPEVRRE […]), synthesised by Pepceuticals Limited, Nottingham, United Kingdom; 25 μM final concentration); His6-PDK1 and PDKtide are together diluted accordingly in assay buffer (50 mM tris pH 7.5, 0.05% β-mercaptoethanol, 10 mM Mg-acetate); PDKtide is present in this mixture as an 83.3 μM solution. These 30 μL are routinely incubated for 30 min at RT. • 20 μL ATP solution (25 μM ATP with 1.0 μCi/well gamma-P33-ATP). The final concentration of Tween 20 is 0.005%.
The reaction is started by adding the ATP solution and the mixture is incubated for 90 min at ambient temperature; at the start of the reaction the dishes are shaken gently. The reaction is stopped by the addition of 50 μL/well of 500 mM phosphoric acid (H3PO4) and incubated for about 20 min at ambient temperature. The precipitate is transferred by harvesting onto filter plates (96-well microtitre filter plate: UniFilter GF/C; Messrs Perkin Elmer; No. 6005174), then washed 6 times with 50 mM H3PO4 and dried at 60° C. Then the plate is stuck down with sealing tape, 25 μL/well of scintillation solution (Microscint 0; Messrs. Perkin Elmer; No. 6013611) are added and the amount of P33 precipitated is measured using the Wallac Betacounter. The measured data are evaluated using Graphpad Prism software.
The % CTL values indicate the residual activity of the enzyme after the addition of the inhibitory compound in the solvent DMSO in relation to the enzyme activity in the solvent DMSO without the addition of a compound (control). The majority of the values were determined using the PDK1 kinase assay III described hereinbefore. The values marked with an asterisk (*) were determined using the PDK1 kinase assay II described hereinbefore.
In the case of `O=C1Nc2cc(/C=C/CNC(=O)c3cccn(Cc4ccccn4)c3=O)ccc2/C1=C/c1cnc[nH]1` [I-9, N-{(2E)-3-[(3Z)-3-(1H-imidazol-5-ylmethylidene)-2-oxo-2,3-dihydro-1H-indol-6-yl]prop-2-en-1-yl}-2-oxo-1-(pyridin-2-ylmethyl)-1,2-dihydropyridine-3-carboxamide], the remaining activity at 10 µM was 17.7%.

For `CN1CCC(Nc2ccc(Nc3ncc4cc(C#CCNC(=O)c5cccn(Cc6ccc(C(F)(F)F)nc6)c5=O)ccc4n3)cc2F)CC1` [II-7, N-{3-[2-({3-fluoro-4-[(1-methylpiperidin-4-yl)amino]phenyl}amino)quinazolin-6-yl]prop-2-yn-1-yl}-2-oxo-1-{[6-(trifluoromethyl)pyridin-3-yl]methyl}-1,2-dihydropyridine-3-carboxamide], the remaining activity at 10 µM worked out at 18.6%.

As for `CN(C)Cc1ccc(Nc2ncc3cc(/C=C/CNC(=O)c4cccn(Cc5ccc(Cl)nc5)c4=O)ccc3n2)cc1` [III-13, 1-[(6-chloropyridin-3-yl)methyl]-N-{(2E)-3-[2-({4-[(dimethylamino)methyl]-phenyl}amino)quinazolin-6-yl]prop-2-en-1-yl}-2-oxo-1,2-dihydropyridine-3-carboxamide], the remaining activity at 10 µM is 13.6%.

Take `Cn1cnc(Cn2cccc(C(=O)NC/C=C/c3ccc4c(c3)NC(=O)/C4=C\c3cnc[nH]3)c2=O)c1` [I-27, N-{(2E)-3-[(3Z)-3-(1H-imidazol-5-ylmethylidene)-2-oxo-2,3-dihydro-1H-indol-6-yl]prop-2-en-1-yl}-1-[(1-methyl-1H-imidazol-4-yl)methyl]-2-oxo-1,2-dihydropyridine-3-carboxamide]: the remaining activity at 10 µM stood at 47.7%.

Turning to `CN(C)Cc1ccc(Nc2ncc3cc(/C=C/CNC(=O)c4cccn(Cc5cccnc5)c4=O)ccc3n2)cc1` [III-12, N-{(2E)-3-[2-({4-[(dimethylamino)methyl]phenyl}amino)quinazolin-6-yl]prop-2-en-1-yl}-2-oxo-1-(pyridin-3-ylmethyl)-1,2-dihydropyridine-3-carboxamide], the remaining activity at 10 µM turned out to be 18.3%.

Consider `CN1CCC(Nc2ccc(Nc3ncc4cc(/C=C/CNC(=O)c5cccn(Cc6ccc(C(F)(F)F)nc6)c5=O)ccc4n3)cc2F)CC1` [III-14, N-{(2E)-3-[2-({3-fluoro-4-[(1-methylpiperidin-4-yl)amino]phenyl}amino)quinazolin-6-yl]prop-2-en-1-yl}-2-oxo-1-{[6-(trifluoromethyl)pyridin-3-yl]methyl}-1,2-dihydropyridine-3-carboxamide], for which the remaining activity at 10 µM is 17.2%.

With `O=C1Nc2cc(/C=C/CNC(=O)c3cccn(CC4CCCCC4)c3=O)ccc2/C1=C/c1ccc[nH]1` [I-13, 1-(cyclohexylmethyl)-2-oxo-N-{(2E)-3-[(3Z)-2-oxo-3-(1H-pyrrol-2-ylmethylidene)-2,3-dihydro-1H-indol-6-yl]prop-2-en-1-yl}-1,2-dihydropyridine-3-carboxamide], the remaining activity at 10 µM amounted to 25.7%.

Turning to `O=C1Nc2cc(/C=C/CNC(=O)c3cccn(Cc4cccnc4)c3=O)ccc2/C1=C/c1cnc[nH]1` [I-7, N-{(2E)-3-[(3Z)-3-(1H-imidazol-5-ylmethylidene)-2-oxo-2,3-dihydro-1H-indol-6-yl]prop-2-en-1-yl}-2-oxo-1-(pyridin-3-ylmethyl)-1,2-dihydropyridine-3-carboxamide], the remaining activity at 10 µM worked out at 14.5%.

In the case of `O=C1Nc2cc(/C=C/CNC(=O)c3cccn(Cc4ccncc4)c3=O)ccc2/C1=C/c1cnc[nH]1` [I-8, N-{(2E)-3-[(3Z)-3-(1H-imidazol-5-ylmethylidene)-2-oxo-2,3-dihydro-1H-indol-6-yl]prop-2-en-1-yl}-2-oxo-1-(pyridin-4-ylmethyl)-1,2-dihydropyridine-3-carboxamide], the remaining activity at 10 µM is 25.1%.

`O=C1Nc2cc(/C=C/CNC(=O)c3cccn(Cc4ccncc4)c3=O)ccc2/C1=C/c1ccc[nH]1` [I-5, 2-oxo-N-{(2E)-3-[(3Z)-2-oxo-3-(1H-pyrrol-2-ylmethylidene)-2,3-dihydro-1H-indol-6-yl]prop-2-en-1-yl}-1-(pyridin-4-ylmethyl)-1,2-dihydropyridine-3-carboxamide]: the remaining activity at 10 µM stood at 39.6%.

On to `CN(C)Cc1ccc(Nc2ncc3cc(C#CCNC(=O)c4cccn(Cc5ccc(C(F)(F)F)nc5)c4=O)ccc3n2)cc1` [II-6, N-{3-[2-({4-[(dimethylamino)methyl]phenyl}amino)quinazolin-6-yl]prop-2-yn-1-yl}-2-oxo-1-{[6-(trifluoromethyl)pyridin-3-yl]methyl}-1,2-dihydropyridine-3-carboxamide], for which the remaining activity at 10 µM is 16%.

With `CN1CCC(N(C)c2ccc(Nc3ncc4cc(/C=C/CNC(=O)c5cccn(Cc6ccc(C(F)(F)F)nc6)c5=O)ccc4n3)cc2)CC1` [III-15, N-{(2E)-3-[2-({4-[methyl(1-methylpiperidin-4-yl)amino]phenyl}amino)quinazolin-6-yl]prop-2-en-1-yl}-2-oxo-1-{[6-(trifluoromethyl)pyridin-3-yl]methyl}-1,2-dihydropyridine-3-carboxamide], the remaining activity at 10 µM was 21%.

Turning to `O=C1Nc2cc(/C=C/CNC(=O)c3cccn(Cc4ccc(Cl)nc4)c3=O)ccc2/C1=C/c1cnc[nH]1` [I-1, 1-[(6-chloropyridin-3-yl)methyl]-N-{(2E)-3-[(3Z)-3-(1H-imidazol-5-ylmethylidene)-2-oxo-2,3-dihydro-1H-indol-6-yl]prop-2-en-1-yl}-2-oxo-1,2-dihydropyridine-3-carboxamide], the remaining activity at 10 µM was 16.8%.

As for `O=C1Nc2cc(/C=C/CNC(=O)c3cccn(Cc4ccccn4)c3=O)ccc2/C1=C/c1ccc[nH]1` [I-6, 2-oxo-N-{(2E)-3-[(3Z)-2-oxo-3-(1H-pyrrol-2-ylmethylidene)-2,3-dihydro-1H-indol-6-yl]prop-2-en-1-yl}-1-(pyridin-2-ylmethyl)-1,2-dihydropyridine-3-carboxamide], the remaining activity at 10 µM is 20.1%.

As for `O=C1Nc2cc(/C=C/CNC(=O)c3cccn(CC4CCCCC4)c3=O)ccc2/C1=C/c1cnc[nH]1` [I-25, 1-(cyclohexylmethyl)-N-{(2E)-3-[(3Z)-3-(1H-imidazol-5-ylmethylidene)-2-oxo-2,3-dihydro-1H-indol-6-yl]prop-2-en-1-yl}-2-oxo-1,2-dihydropyridine-3-carboxamide], the remaining activity at 10 µM is 15.1%.

Turning to `O=C1Nc2cc(/C=C/CNC(=O)c3cccn(Cc4cccnc4)c3=O)ccc2/C1=C/c1ccc[nH]1` [I-4, 2-oxo-N-{(2E)-3-[(3Z)-2-oxo-3-(1H-pyrrol-2-ylmethylidene)-2,3-dihydro-1H-indol-6-yl]prop-2-en-1-yl}-1-(pyridin-3-ylmethyl)-1,2-dihydropyridine-3-carboxamide], the remaining activity at 10 µM was determined as 18.6%.

As to `CN(C)CCNC(=O)c1cccc(-c2c[nH]c(/C=C3\C(=O)Nc4cc(/C=C/CNC(=O)c5cccn(Cc6ccc(Cl)nc6)c5=O)ccc43)c2)c1` [I-3, 1-[(6-chloropyridin-3-yl)methyl]-N-{(2E)-3-[(3Z)-3-{[4-(3-{[2-(dimethylamino)-ethyl]carbamoyl}phenyl)-1H-pyrrol-2-yl]methylidene}-2-oxo-2,3-dihydro-1H-indol-6-yl]prop-2-en-1-yl}-2-oxo-1,2-dihydropyridine-3-carboxamide], the remaining activity at 10 µM was found to be 18.9%.

`Cn1cncc1Cn1cccc(C(=O)NC/C=C/c2ccc3c(c2)NC(=O)/C3=C\c2cnc[nH]2)c1=O` [I-26, N-{(2E)-3-[(3Z)-3-(1H-imidazol-5-ylmethylidene)-2-oxo-2,3-dihydro-1H-indol-6-yl]prop-2-en-1-yl}-1-[(1-methyl-1H-imidazol-5-yl)methyl]-2-oxo-1,2-dihydropyridine-3-carboxamide]: the remaining activity at 10 µM was found to be 34.1%.
